Assay [1] can be described thus: DPPH radical scavenging assay. Format: physicochemical. Conditions: 30 min incubation, 37 °C; mean ± SD, n = 3. As for the experimental part:
The DPPH assay was conducted to assess the radical scavenging capabilities of the synthesized compounds. Stock solutions of the compounds were formulated in DMSO and subsequently diluted serially to achieve test concentrations ranging from 500 to 10 μM in ethanol. Each sample’s ethanolic DPPH solution was treated with the respective test concentrations and incubated at 37 °C. After a 30 min incubation period, the absorbance was measured at 517 nm, using ethanol as the blank control. Ascorbic acid served as the reference standard, and the IC50 values for the synthesized compounds were determined using the following Equation (2):(2) %DPPH scavenging activity=Abscontrol−Abs sample/Abs (control)×100

The next assay relates to IL-6. Put plainly: Gene expression by real-time RT-PCR. The class given is cell-based, human. The following applies: inflamed NHDF cells, 10 µM, 24 h. On the procedure: (§1) The NHDF cells were treated according to the previously outlined procedure. The control and LPS groups were incubated separately in culture dishes containing DMEM, while the test compounds groups were placed in dishes with 10 µM BS23 and BS28, respectively. After a 24 h incubation at 37 °C in a 5% CO2 atmosphere, the NHDF cells were scraped from the bottom of the microplate using a rubber, and then they were centrifuged at 9000× g for 5 min. The pellet was washed with ice-cold PBS twice. RNA was isolated using a Total RNA Mini Plus kit (A&A Biotechnology, Gdańsk, Poland) followed by DNase I (Thermo Fisher Scientific, Waltham, MA, USA) treatment according to the producer’s instructions. cDNA synthesis was performed using a Fast Gene Scriptase II cDNA (Nippon Genetics Europe, Duren, Germany). RT-qPCR analyses were performed using the DyNAmo Flash SYBR Green qPCR Kit (Thermo Fisher Scientific, Waltham, MA, USA) and the CFX Connect Real-Time PCR Detection System (Bio-Rad, Hercules, CA, USA) . Relative gene expression was normalized to the reference gene, β-actin, using the 2^−ΔΔCT method. The primer sequences utilized in this study were as follows: IL-6: F, 5′-[…]-3′; R, 5′-[…]-3′; TNF-α: F, 5′-[…]-3′; R, 5′-[…]-3′; β-actin: F, 5′-[…]-3′; R, 5′-[…]-3′. All experiments were performed at least three times.

The subject of a further assay is TNF-α. Put plainly: Gene expression by real-time RT-PCR. Format: cell-based, human. The following applies: inflamed NHDF cells, 10 µM, 24 h. As for the experimental part: as §1
In assay [2] the test system is NHDF (normal human dermal fibroblast) cells. Kind of assay: MTT cytotoxicity assay. Format: cell-based. Conditions: NHDF cell cultures, 24 h incubation, mean ± SD. As for the experimental part:
NHDF (normal human dermal fibroblast) cells, sourced from the American Type Culture Collection (ATCC), were maintained in DMEM without phenol red, enhanced with 10% fetal bovine serum (FBS), 2 mM L-glutamine, and 25 μg/mL gentamicin. The cells were incubated under conditions of 5% CO2, at a temperature of 37 °C, and 95% humidity. We monitored the cells bi-weekly, utilizing or subculturing them once they reached over 70% confluence. For all experimental setups, cells were plated at a density of 10,000 cells per well and allowed to recover in a CO2 incubator for 24 h.
The compounds under investigation were dissolved in DMSO to achieve a final concentration of 10 mM and then stored at −20 °C. Lipopolysaccharide (LPS) from Escherichia coli (Sigma-Aldrich, Saint Louis, MO, USA; catalog no. L2630) was dissolved in distilled water to a concentration of […]. The stock solution of LPS was stored at −20 °C for up to 6 months. Final concentrations of LPS used in this study were 50 µg/mL. Prior to use, the solutions were thawed at room temperature. For each compound, 8 different concentrations in the range of 500–10 μM were prepared in the culture medium.
The cytotoxicity of the test compound was assessed using the MTT assay. After cell seeding and overnight incubation, the supernatant was removed, and the compounds were added at concentrations ranging from 500 to 10 µM. Control cells were treated with complete medium only, while cells treated with medium containing DMSO at the highest compound concentration were included as the solvent control. After the incubation period, the supernatant was removed, and 50 µL of a 1.0 mg/mL MTT solution was added to each well and incubated for 2 h at 37 °C. The medium was then removed, and 100 µL of DMSO was added to each well. Finally, absorbance was measured at 570 nm using a Multiskan GO spectrophotometer.
Cell viability was calculated according to Equation (1): (Ai − Am)/(Ac − Am) × 100(Ai − Am)/(Ac − Am) × 100(1) where Ai is the absorbance of the tested concentration, Am is the absorbance of the medium, and Ac is the absorbance of the control. Based on the cytotoxicity test results, the IC50 was calculated using a 4-point lognormal distribution with a Hill coefficient. Experiments were performed in triplicate.

Molecules are shown by their SMILES. A value given as a limit tells only on which side of the number the result lay.

`COc1ccc(C(=O)C2=C(O)c3ccccc3S(=O)(=O)N2CCCN2CCN(c3ccccn3)CC2)cc1` [BS23]: the IC50 was above 500 µM in assay [1] and 228 ± 28.1 µM in assay [2]. In addition, in the assay with IL-6, the “expression of IL-6 mRNA compared to the LPS group” value is “markedly reduced”. In the assay with TNF-α, the “expression of TNF-α mRNA compared to the LPS group” value is recorded as “markedly reduced”.
Turning to `O=C(C1=C(O)c2ccccc2S(=O)(=O)N1CC(=O)N1CCN(c2ccccc2)CC1)c1ccc(Br)cc1` [BS28, 3-(4-Bromobenzoyl)-2-[2-(4-phenylpiperazin-1-yl)-2-oxoethyl]-4-hydroxy-2H-1,2-benzothiazine 1,1-dioxide], the IC50 was above 500 µM in assay [1] and 180 ± 13.6 µM in assay [2]. In addition, in the assay with IL-6, the “expression of IL-6 mRNA compared to the LPS group” value was “markedly reduced”. In addition, the “expression of TNF-α mRNA compared to the LPS group” value in the assay with TNF-α is on record as “markedly reduced”.

These data come from PMC11678778, “Anti-Inflammatory Properties of Novel 1,2-Benzothiazine Derivatives and Their Interaction with Phospholipid Model Membranes” (Membranes, 2024).
